Biological target: T1, human recombinant, purified wild type His-B-Raf protein kinase (Homo sapiens, UniProt P15056)
T1 construct: His
Assay: B-Raf In Vitro ELISA Assay
Type: biochemical
Settings: phosphorylation of MEK1; 2.5 nM B-Raf, 0.15 μM MEK1, 10 μM ATP; 1 hour preincubation at 25° C.
Protocol: B-Raf In Vitro ELISA Assay
Activity of human recombinant, purified wild type His-B-Raf protein kinase was determined in vitro using an enzyme-linked immunosorbent assay (ELISA) assay format, which measures phosphorylation of the B-Raf substrate, human recombinant, purified His-derived (detagged) MEK1. The reaction utilized 2.5 nM B-Raf, 0.15 μM MEK1 and 10 μM adenosine triphosphate (ATP) in 40 mM N-(2-hydroxyethyl)piperazine-N′-(2-ethanesulfonic acid hemisodium salt (HEPES), 5 mM 1,4-dithio-DL-threitol (DTT), 10 mM MgCl2, 1 mM ethylenediaminetetraacetic acid (EDTA) and 0.2 M NaCl (1×HEPES buffer), with or without compound at various concentrations, in a total reaction volume of 25 μl in 384 well plates. B-Raf and compound were preincubated in 1×HEPES buffer for 1 hour at 25° C. Reactions were initiated with addition of MEK1 and ATP in 1×HEPES buffer and incubated at 25° C. for 50 minutes and reactions stopped by addition of 10 μl 175 mM EDTA (final concentration 50 mM) in 1×HEPES buffer. 5 μl of the assay mix was then diluted 1:20 into 50 mM EDTA in 1×HEPES buffer, transferred to 384 well black high protein binding plates and incubated overnight at 4° C. Plates were washed in tris buffered saline containing 0.1% 5 Tween20 (TBST), blocked with 50 μl Superblock (Pierce) for 1 hour at 25° C., washed in TBST, incubated with 50 μl rabbit polyclonal anti-phospho-MEK antibody (Cell Signaling) diluted 1:1000 in TBS for 2 hours at 25° C., washed with TBST, incubated with 50 μl goat anti-rabbit horseradish peroxidase-linked antibody (Cell Signaling) diluted 1:2000 in TBS for 1 hour at 25° C. and washed with TBST. 50 μl of fluorogenic peroxidase substrate (Quantablu 10-Pierce) was added and following incubation for 45-60 minutes, 50 μl QuantabluSTOP (Pierce) was added. Blue fluorescent product was detected at excitation 325 and emission 420 using a TECAN Ultra plate reader. Data was graphed and IC50s calculated using Excel Fit (Microsoft).

T1 sequence (P15056 whole entry): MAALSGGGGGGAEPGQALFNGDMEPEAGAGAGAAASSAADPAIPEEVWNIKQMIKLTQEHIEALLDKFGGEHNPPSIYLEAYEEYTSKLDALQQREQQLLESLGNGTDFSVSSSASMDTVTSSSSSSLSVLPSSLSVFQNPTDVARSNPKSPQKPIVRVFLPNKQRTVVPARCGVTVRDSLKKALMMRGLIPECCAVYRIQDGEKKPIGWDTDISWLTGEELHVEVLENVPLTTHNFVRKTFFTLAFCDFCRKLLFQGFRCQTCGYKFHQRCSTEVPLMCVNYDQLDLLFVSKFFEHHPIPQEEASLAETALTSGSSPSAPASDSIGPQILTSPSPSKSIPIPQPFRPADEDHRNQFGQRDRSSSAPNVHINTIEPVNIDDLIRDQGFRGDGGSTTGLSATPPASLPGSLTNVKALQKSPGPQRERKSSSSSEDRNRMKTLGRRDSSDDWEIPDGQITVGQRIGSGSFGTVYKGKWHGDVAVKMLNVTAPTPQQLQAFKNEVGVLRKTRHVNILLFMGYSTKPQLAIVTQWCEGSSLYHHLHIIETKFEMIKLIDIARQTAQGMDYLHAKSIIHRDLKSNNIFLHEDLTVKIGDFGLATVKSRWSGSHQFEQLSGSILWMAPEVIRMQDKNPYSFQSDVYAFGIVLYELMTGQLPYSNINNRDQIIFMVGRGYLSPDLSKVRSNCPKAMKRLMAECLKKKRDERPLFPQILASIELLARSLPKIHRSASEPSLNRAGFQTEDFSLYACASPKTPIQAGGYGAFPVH

IC50 [µM] | Compound
0.193 | COc1cc2ncnc(Nc3cc(NC(=O)c4cccc(C5(C#N)CCC5)c4)ccc3C)c2cc1OC [Example 7, 3-(1-Cyanocyclobutyl)-N-{3-[(6,7-dimethoxyquinazolin-4-yl)amino]-4-methylphenyl}benzamide]
1.1 | COc1cc2c(Nc3cc(NC(=O)c4cccc(C(C)(C)C#N)c4)ccc3C)ncnc2cc1OCc1ccccc1 [Example 5, N-(3-{[7-(Benzyloxy)-6-methoxyquinazolin-4-yl]amino}-4-methylphenyl)-3-(1-cyano-1-methylethyl)benzamide]
0.37 | COc1cc2ncnc(Nc3cc(NC(=O)c4cc(C(F)(F)F)ccc4F)ccc3C)c2cc1OC [Example 15, N-{3-[(6,7-Dimethoxyquinazolin-4-yl)amino]-4-methylphenyl}-2-fluoro-5-(trifluoromethyl)benzamide]

Reference: patent US20080306096A1, “Quinazoline Derivatives, Process for Their Preparation and Their Use as Anti-Cancer Agents” (ASTRAZENECA AB, priority 2005, published 2008)
